Measurements from ChEMBL document CHEMBL1201862, “PubChem BioAssay data set” (2004).
Active and inactive are the calls of the source.

How the values were obtained:
[1] = insulin promoter down-regulators in MIN6 cells, imaging, high-content screening, mouse beta cells (AID 1628); format: functional
[2] = cytotoxicity in MIN6 insulinoma cells, dose response, cytotoxicity control, cell-based, mouse insulinoma (AID 2122); format: functional;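 further: confirmatory high-throughput counterscreen run to flag cytotoxic compounds; mouse MIN-6 beta cells carrying an insulin promoter eGFP reporter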
Protein Wnt-3a = Protein Wnt-3a (Mus musculus, UniProt P27467); experiment: Wnt3a-driven reporter signaling inhibition, dose response, selectivity assay for Gli-SUFU antagonist project, Wnt-LIGHT cells, luminescence (AID 651570); format: functional; conditions: read-out: IC50_Mean;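 further: Wnt-LIGHT reporter cells stimulated with conditioned medium from Wnt3a-producing cells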
[3] = biological target: Voltage-dependent T-type calcium channel subunit alpha-1H (Homo sapiens, UniProt O95180); experiment: Cav3.2 T-type channel blockers, cell-based, SynthLib3 library, HEK293 Cav3.2, fluorescence (AID 493041); format: functional
[4] = HEp-2 cell cytotoxicity, dose response, cytotoxicity control for RSV inhibitor project, HTS (AID 2410); format: functional; conditions: human respiratory syncytial virus
[5] = biological target: Intestinal-type alkaline phosphatase (Mus musculus, UniProt P24822); experiment: PubChem AID 488785; format: functional
[6] = biological target: T1, Alkaline phosphatase, tissue-nonspecific isozyme (Homo sapiens, UniProt P05186); experiment: TNAP enzyme inhibition by screening hits, dose response, selectivity assay for mouse IAP inhibitor project, biochemical, human TNAP, uHTS hits (AID 488906); format: functional
T1 sequence (P05186 whole entry): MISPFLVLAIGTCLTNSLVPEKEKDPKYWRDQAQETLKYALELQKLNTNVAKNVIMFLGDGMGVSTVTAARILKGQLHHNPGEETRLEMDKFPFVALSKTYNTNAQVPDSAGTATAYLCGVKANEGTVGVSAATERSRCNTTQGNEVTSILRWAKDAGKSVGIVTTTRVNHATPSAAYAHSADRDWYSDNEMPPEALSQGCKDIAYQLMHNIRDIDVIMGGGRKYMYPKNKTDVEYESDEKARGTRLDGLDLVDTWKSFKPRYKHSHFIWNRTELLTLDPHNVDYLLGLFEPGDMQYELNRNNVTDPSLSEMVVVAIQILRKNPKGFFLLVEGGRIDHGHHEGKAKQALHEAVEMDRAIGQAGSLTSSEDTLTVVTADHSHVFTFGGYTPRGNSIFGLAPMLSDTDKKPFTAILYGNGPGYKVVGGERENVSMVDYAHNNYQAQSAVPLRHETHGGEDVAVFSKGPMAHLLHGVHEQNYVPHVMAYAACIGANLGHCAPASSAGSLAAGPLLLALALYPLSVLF

[7] = biological target: Intestinal-type alkaline phosphatase (Homo sapiens, UniProt P09923); experiment: inhibition of human intestinal alkaline phosphatase – biochemical, dose response (AID 488876); format: functional
Vero = Vero cell cytotoxicity, cytotoxicity control for flavivirus capping enzyme inhibitors (AID 588742); format: functional; conditions: Chlorocebus sabaeus
cells [8] = format: functional, cell-based
[9] = biological target: T2, Trace amine-associated receptor 1 (Homo sapiens, UniProt Q96RJ0); experiment: Fluorescence-based cell-based high throughput dose response assay to identify agonists of the human trace amine associated receptor 1 (TAAR1).; format: functional
T2 sequence (Q96RJ0 whole entry): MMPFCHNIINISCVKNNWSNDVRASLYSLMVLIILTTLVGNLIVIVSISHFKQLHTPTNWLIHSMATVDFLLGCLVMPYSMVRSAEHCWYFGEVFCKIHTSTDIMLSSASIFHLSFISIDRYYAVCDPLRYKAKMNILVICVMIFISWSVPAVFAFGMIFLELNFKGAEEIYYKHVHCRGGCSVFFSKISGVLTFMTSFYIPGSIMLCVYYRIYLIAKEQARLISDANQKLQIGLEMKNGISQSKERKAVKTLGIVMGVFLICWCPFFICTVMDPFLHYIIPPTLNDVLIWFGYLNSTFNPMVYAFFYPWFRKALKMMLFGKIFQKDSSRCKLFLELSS

[10] = biological target: T2, Trace amine-associated receptor 1; experiment: Counterscreen for agonists of the human trace amine associated receptor 1 (hTAAR1): Fluorescence-based cell-based high throughput dose response assay to identify hTAAR1 agonist that also desensitize TAAR1 receptor response.; format: functional
cells [11] = format: functional, cell-based; remark: listed apart in the source
Caspase-6 = Caspase-6 (Homo sapiens, UniProt P55212); experiment: human caspase-6 inhibitors, dose response, biochemical, VEID-R110 fluorescence, cherry-pick (AID 720632)
[12] = biological target: T3, Histone-lysine N-methyltransferase NSD2 (Homo sapiens, UniProt O96028); format: biochemical
T3 sequence (O96028 whole entry): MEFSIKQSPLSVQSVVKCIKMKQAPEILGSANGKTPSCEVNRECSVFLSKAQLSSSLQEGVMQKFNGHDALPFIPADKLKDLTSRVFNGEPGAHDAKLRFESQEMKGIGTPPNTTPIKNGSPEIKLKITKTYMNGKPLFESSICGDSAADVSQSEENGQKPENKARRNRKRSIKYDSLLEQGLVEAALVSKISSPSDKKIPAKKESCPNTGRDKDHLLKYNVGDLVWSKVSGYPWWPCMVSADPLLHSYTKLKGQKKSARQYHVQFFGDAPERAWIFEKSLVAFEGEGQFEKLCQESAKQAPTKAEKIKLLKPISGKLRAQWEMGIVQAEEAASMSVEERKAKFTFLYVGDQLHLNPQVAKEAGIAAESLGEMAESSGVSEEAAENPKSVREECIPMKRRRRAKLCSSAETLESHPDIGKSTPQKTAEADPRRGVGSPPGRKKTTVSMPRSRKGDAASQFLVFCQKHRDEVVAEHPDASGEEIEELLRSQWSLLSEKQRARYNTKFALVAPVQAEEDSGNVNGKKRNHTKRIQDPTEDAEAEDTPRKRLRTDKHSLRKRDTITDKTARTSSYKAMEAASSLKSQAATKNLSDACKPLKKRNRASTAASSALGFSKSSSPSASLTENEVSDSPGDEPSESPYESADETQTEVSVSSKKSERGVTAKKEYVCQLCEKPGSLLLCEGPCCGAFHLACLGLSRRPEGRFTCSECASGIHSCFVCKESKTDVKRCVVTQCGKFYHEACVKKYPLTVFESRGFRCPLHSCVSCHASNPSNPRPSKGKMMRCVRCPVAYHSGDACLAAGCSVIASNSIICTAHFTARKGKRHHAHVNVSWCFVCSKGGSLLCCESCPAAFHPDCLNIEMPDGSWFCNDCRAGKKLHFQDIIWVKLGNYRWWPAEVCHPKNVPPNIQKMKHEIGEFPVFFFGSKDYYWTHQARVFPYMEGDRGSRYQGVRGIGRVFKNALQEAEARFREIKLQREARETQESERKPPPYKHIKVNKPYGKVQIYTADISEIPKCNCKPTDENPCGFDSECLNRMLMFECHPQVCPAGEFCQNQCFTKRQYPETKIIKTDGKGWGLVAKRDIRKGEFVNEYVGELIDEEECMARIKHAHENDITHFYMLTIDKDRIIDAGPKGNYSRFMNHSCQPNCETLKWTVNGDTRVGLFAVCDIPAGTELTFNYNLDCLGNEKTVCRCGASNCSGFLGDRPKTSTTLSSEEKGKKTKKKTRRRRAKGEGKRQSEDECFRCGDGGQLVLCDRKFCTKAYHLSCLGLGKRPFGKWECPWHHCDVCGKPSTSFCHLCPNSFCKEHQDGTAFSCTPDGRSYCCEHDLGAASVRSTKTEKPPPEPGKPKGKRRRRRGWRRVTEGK

[13] = THP-1 cell cytotoxicity, dose response, cytotoxicity control for Vif-APOBEC3G degradation inhibitor project, THP-1 cells (AID 1117359); format: functional; conditions: Human immunodeficiency virus 1, THP-1
[14] = biological target: G-protein coupled receptor 55 (Homo sapiens, UniProt Q9Y2T6); experiment: GPR55 antagonists, SAR follow-up, counter-screen for GPR35 antagonist project, imaging, image-based (AID 2397); format: functional
[15] = biological target: Lysine-specific demethylase 4C (Homo sapiens, UniProt Q9H3R0); experiment: GASC-1 (JMJD2C) histone demethylase inhibitors, dose response, biochemical, DELFIA europium, cherry-picked samples (AID 488835); format: functional
[16] = microbe, parasite or virus in culture; format: functional; conditions: Mycobacterium tuberculosis
Exodeoxyribonuclease V = Exodeoxyribonuclease V (Escherichia coli (strain K12), UniProt P04993+P07648+P08394); experiment: E. coli RecBCD inhibitors, dose response, counter-screen for AddAB inhibitor project, absorbance, V66 E. coli, mutant T4 phage (AID 492957); format: functional, cell-based, Escherichia coli str. K-12 substr. MG1655
[17] = Luminescence Cell-Based Dose Retest to Confirm Inhibitors of Cancer Stem Cells. [Related pubchem assays (depositor defined):AID2717, AID2721]; format: functional; conditions: Homo sapiens
[18] = Counterscreen for AddAB inhibitors: absorbance-based bacterial cell-based high throughput dose response assay for inhibitors of bacterial viability. [Related pubchem assays (depositor defined):AID435030, AID449728, AID449731, AID488942, AID488955, AID488956]; format: functional

Sequence of Lysine-specific demethylase 4C (Q9H3R0 whole entry): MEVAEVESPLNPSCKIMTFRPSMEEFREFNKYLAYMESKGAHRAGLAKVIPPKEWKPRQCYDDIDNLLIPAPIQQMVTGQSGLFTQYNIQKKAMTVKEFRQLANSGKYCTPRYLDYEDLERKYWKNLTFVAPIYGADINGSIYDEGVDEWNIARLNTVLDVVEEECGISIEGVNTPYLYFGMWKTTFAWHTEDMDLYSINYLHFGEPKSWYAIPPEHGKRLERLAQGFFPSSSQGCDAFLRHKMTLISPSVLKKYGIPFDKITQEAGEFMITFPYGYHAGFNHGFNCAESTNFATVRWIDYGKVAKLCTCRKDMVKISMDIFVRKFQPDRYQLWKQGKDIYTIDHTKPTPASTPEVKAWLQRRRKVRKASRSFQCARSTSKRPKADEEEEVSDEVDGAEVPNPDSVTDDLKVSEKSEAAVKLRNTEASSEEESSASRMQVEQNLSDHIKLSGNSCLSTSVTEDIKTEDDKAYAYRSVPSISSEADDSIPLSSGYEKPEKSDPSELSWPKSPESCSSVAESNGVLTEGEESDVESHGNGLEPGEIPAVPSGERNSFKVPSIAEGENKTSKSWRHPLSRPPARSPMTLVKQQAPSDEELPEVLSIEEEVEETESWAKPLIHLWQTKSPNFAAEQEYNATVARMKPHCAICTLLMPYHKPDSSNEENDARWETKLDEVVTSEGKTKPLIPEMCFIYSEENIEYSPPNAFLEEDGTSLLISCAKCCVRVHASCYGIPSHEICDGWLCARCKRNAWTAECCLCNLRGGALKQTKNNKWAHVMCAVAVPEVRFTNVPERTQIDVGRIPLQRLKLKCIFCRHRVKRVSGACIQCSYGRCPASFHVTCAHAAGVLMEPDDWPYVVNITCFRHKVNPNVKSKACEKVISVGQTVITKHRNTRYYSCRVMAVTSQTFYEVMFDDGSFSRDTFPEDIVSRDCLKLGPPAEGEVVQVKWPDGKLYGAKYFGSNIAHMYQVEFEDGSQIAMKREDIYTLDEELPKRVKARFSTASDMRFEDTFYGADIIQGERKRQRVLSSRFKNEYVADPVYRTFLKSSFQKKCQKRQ
Sequence of Intestinal-type alkaline phosphatase (Homo sapiens, UniProt P09923) (P09923 whole entry): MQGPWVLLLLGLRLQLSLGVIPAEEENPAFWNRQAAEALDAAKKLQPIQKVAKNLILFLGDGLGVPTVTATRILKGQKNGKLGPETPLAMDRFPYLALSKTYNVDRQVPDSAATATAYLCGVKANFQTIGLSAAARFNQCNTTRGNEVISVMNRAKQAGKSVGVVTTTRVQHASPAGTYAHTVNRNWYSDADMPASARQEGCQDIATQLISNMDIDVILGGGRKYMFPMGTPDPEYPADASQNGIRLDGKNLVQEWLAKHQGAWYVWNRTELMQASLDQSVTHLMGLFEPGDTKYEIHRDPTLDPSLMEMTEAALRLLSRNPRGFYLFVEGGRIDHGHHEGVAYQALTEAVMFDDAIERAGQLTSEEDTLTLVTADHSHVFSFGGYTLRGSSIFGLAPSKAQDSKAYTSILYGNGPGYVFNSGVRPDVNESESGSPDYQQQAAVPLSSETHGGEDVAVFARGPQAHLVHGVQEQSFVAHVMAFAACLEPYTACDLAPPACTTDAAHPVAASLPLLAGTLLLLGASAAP
Sequence of Intestinal-type alkaline phosphatase (Mus musculus, UniProt P24822) (P24822 whole entry): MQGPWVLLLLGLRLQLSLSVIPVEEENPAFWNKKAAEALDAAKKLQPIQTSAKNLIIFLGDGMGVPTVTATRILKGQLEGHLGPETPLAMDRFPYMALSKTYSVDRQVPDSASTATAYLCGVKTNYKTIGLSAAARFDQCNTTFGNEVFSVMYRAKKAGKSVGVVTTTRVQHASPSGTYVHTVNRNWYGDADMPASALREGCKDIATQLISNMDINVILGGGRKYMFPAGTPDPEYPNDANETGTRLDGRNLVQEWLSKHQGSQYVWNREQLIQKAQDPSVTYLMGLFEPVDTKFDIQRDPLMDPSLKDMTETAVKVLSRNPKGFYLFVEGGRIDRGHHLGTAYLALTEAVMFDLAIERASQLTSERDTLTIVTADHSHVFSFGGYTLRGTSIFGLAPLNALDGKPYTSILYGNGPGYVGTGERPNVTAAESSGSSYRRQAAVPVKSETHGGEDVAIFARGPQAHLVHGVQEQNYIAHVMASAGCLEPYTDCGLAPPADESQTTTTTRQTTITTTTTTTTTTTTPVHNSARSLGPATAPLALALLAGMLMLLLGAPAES
Sequence of Exodeoxyribonuclease V (P04993 whole entry): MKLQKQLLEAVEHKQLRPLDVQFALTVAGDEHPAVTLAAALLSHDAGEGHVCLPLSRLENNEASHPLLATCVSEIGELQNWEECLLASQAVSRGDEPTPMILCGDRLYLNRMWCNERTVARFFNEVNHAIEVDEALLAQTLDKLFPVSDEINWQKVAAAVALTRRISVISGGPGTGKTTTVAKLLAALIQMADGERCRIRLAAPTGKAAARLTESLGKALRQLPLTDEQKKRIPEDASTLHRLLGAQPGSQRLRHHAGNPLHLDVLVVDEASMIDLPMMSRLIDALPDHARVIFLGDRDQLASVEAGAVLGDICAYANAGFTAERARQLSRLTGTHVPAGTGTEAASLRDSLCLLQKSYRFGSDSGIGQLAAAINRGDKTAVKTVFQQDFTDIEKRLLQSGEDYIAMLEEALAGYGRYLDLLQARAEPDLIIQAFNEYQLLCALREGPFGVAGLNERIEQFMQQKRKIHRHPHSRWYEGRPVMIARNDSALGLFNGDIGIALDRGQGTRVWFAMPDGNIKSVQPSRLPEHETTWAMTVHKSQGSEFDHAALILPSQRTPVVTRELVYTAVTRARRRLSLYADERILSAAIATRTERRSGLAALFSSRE
Sequence of Exodeoxyribonuclease V (P07648 whole entry): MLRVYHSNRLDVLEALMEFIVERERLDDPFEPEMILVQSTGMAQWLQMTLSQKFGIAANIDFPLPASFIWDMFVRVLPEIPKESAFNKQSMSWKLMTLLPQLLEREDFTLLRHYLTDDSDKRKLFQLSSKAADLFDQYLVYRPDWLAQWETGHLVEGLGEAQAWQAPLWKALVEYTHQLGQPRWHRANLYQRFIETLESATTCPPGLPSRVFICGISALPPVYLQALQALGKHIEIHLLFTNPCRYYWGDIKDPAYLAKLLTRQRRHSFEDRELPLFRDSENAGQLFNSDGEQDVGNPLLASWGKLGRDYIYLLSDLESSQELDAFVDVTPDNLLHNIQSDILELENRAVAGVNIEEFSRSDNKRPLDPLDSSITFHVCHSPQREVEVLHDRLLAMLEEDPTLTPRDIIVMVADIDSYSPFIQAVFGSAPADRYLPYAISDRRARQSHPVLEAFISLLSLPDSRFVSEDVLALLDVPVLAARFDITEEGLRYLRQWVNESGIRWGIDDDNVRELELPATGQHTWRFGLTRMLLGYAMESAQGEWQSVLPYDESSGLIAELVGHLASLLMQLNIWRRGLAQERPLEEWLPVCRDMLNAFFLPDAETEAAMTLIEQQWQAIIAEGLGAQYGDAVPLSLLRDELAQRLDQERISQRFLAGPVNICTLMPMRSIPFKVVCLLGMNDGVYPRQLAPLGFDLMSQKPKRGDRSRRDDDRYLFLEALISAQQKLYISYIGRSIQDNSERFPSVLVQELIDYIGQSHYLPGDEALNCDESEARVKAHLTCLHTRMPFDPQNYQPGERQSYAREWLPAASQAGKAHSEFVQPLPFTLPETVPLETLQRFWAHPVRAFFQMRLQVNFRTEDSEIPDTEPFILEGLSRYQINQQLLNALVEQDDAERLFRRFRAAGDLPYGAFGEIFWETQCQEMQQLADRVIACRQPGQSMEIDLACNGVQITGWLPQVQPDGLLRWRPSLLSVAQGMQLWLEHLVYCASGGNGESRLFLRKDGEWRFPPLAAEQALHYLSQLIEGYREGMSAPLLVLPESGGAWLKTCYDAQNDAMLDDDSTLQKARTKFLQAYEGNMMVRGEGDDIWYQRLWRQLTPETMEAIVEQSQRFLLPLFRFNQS
Sequence of Exodeoxyribonuclease V (P08394 whole entry): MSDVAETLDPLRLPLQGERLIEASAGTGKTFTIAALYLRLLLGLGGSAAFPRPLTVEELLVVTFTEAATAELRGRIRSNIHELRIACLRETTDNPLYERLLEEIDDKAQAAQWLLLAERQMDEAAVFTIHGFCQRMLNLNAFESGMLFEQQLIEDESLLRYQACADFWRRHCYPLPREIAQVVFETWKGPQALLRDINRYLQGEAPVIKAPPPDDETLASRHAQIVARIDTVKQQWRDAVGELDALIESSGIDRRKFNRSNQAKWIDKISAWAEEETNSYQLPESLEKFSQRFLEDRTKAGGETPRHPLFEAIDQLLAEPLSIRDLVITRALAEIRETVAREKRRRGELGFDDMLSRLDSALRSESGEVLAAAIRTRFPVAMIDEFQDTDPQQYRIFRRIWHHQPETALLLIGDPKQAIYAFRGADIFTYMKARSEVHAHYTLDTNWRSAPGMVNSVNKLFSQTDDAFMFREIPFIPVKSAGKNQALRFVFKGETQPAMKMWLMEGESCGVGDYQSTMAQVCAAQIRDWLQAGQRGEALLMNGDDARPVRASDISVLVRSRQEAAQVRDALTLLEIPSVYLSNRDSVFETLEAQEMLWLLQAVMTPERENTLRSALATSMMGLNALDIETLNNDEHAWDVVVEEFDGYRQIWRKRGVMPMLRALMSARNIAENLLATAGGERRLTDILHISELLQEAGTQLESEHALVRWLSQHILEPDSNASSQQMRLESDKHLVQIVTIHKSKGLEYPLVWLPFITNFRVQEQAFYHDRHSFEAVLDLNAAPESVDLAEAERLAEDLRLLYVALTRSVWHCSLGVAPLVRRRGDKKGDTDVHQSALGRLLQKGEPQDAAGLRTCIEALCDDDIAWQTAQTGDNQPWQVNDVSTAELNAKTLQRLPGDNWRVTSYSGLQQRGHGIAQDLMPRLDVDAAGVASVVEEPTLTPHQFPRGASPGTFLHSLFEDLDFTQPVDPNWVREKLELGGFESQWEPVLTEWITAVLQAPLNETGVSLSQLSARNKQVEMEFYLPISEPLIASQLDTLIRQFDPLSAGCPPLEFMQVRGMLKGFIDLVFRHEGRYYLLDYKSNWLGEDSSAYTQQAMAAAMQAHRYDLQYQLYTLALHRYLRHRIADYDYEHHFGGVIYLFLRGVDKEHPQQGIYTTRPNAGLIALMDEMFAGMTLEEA

For COc1ccc(NS(=O)(=O)c2ccc(NC(C)=O)cc2)cc1OC, which IC50 [1] is on record?
Its IC50 is 3.44 µM (active).

And the IC50 [2]?
The IC50 was 2.22 µM (active).

And the IC50 (Protein Wnt-3a)?
Its IC50 is 12 µM (active).

For CC(C)Cc1nnc(NC(=O)COc2ccc(F)cc2Cl)o1, which EC50 [3] is on record?
The EC50 was 10 µM (active).

Which CC50 [4] does the source give for O=[N+]([O-])c1ccccc1NC(=S)N/N=C/c1ccc(O)c(O)c1 here?
Its CC50 is 11.7 µM (active).

And the IC50 [5]?
Its IC50 is 0.216 µM (active).

What about the IC50 [6] of the same molecule?
Its IC50 is 1.53 µM (active).

What about the IC50 [7] of the same molecule?
The IC50 was > 100 µM (inactive).

What about the CC50 (Vero) of the same molecule?
The CC50 was 22.8 µM (active).

What about the IC50 (cells [8]) of the same molecule?
The IC50 was 23.5 µM (inactive).

What about the EC50 [9] of the same molecule?
Its EC50 is 4.15 µM (active).

What about the IC50 [10] of the same molecule?
The IC50 was 7.2 µM (active).

What about the EC50 (cells [11]) of the same molecule?
Its EC50 is > 29.9 µM (inactive).

What about the AC50 (Caspase-6) of the same molecule?
The AC50 was 1.56 µM (active).

And the AC50 [12]?
Its AC50 is 1.34 µM (active).

What about the CC50 [13] of the same molecule?
The CC50 was 25.5 µM (active).

Which IC50 [14] does the source give for Cc1ccc(OCCC(=O)NCCc2ccc(S(N)(=O)=O)cc2)cc1 here?
The IC50 was > 32 µM (inactive).

For CS(=O)(=O)N(CC(=O)NCc1ccco1)c1ccccc1Cl, which AC50 [15] is on record?
Its AC50 is 18.4 µM (active).

For O=C(CSc1[nH]cnc2ncnc1-2)c1ccc(Cl)cc1, which CC50 [16] is on record?
The CC50 was > 40 µM (active).

And the IC50 (Exodeoxyribonuclease V)?
Its IC50 is > 119 µM (inactive).

What about the AC50 [17] of the same molecule?
The AC50 was 2.81 µM (active).

What about the IC50 [18] of the same molecule?
The IC50 was 61.1 µM (inactive).
